Test results taken from ChEMBL document CHEMBL1145296, “Development of 6-substituted indolylquinolinones as potent Chek1 kinase inhibitors” (Bioorg Med Chem Lett, 2006).

Experiments:
[1] = target: T1, Serine/threonine-protein kinase Chk1 (Homo sapiens, UniProt O14757); assay: Inhibition of human CHEK1
T1 sequence (O14757 whole entry): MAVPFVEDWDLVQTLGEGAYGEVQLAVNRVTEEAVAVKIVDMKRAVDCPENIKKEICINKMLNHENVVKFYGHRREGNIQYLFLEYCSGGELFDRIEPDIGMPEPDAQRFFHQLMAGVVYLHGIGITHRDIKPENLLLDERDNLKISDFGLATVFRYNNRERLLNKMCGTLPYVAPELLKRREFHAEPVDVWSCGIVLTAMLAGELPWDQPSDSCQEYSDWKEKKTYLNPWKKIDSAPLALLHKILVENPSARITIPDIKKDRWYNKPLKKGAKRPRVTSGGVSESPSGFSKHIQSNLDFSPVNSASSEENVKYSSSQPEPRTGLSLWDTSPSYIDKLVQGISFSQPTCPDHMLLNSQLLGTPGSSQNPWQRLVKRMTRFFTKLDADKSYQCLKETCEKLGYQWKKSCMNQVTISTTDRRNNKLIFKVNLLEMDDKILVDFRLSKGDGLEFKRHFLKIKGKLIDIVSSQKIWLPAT

[2] = Half life in dog at 0.25 mg/kg, iv; assay type: ADME, organism-based, Canis lupus familiaris; set-up: dose 0.25 mg/kg, route intravenous; conditions: in vivo
[3] = Clearance in dog at 0.25 mg/kg, iv; assay type: ADME, organism-based, Canis lupus familiaris; set-up: dose 0.25 mg/kg, route intravenous; conditions: in vivo
[4] = Partition coefficient, log P of the compound; assay type: physicochemical; conditions: octanol/water

SMILES	IC50 [1] [nM]	half-life [2] [h]	clearance [3] [mL/min/kg]	logP [4]
O=c1[nH]c2ccc(-c3cc[nH]n3)cc2cc1-c1cc2cc(CN3CCCCC3)ccc2[nH]1	5.6	–	–	–
O=c1[nH]c2ccc(-c3cn[nH]c3)cc2cc1-c1cc2cc(CN3CCOCC3)ccc2[nH]1	0.83	2	34	–
O=c1[nH]c2ccc(Br)cc2cc1-c1cc2cc(CN3CCCCC3)ccc2[nH]1	2.9	–	–	–
O=c1[nH]c2ccc(-c3cn[nH]c3)cc2cc1-c1cc2cc(CN3CCC(F)CC3)ccc2[nH]1	1	2.5	22	–
N#Cc1cccc2[nH]c(=O)c(-c3cc4cc(CN5CCC(CN)CC5)ccc4[nH]3)cc12	580	–	–	–
O=c1[nH]c2ccccc2cc1-c1cc2ccccc2[nH]1	1000	–	–	–
CC(=O)N1CCN(Cc2ccc3[nH]c(-c4cc5cc(-c6cn[nH]c6)ccc5[nH]c4=O)cc3c2)CC1	2.5	1.5	27	–
COc1cc(-c2ccc3[nH]c(=O)c(-c4cc5cc(CN6CCCCC6)ccc5[nH]4)cc3c2)ccc1O	20	–	–	–
N#Cc1ccc2cc(-c3cc4cc(CN5CCC(CN)CC5)ccc4[nH]3)c(=O)[nH]c2c1	190	–	–	–
CC(=O)N1CCN(Cc2ccc3[nH]c(-c4cc5cc(-c6cnn(C)c6)ccc5[nH]c4=O)cc3c2)CC1	3	4.1	6.5	–
NCC1CCN(Cc2ccc3[nH]c(-c4cc5cc(C(N)=O)ccc5[nH]c4=O)cc3c2)CC1	0.7	–	–	–
NC(=O)c1ccc2[nH]c(=O)c(-c3cc4cc(CN5CCCCC5)ccc4[nH]3)cc2c1	0.34	–	–	–
O=c1[nH]c2ccc(-n3ccnn3)cc2cc1-c1cc2cc(CN3CCCCC3)ccc2[nH]1	0.74	–	–	–
N#Cc1ccc2[nH]c(=O)c(-c3cc4cc(CN5CCC(CN)CC5)ccc4[nH]3)cc2c1	4	–	–	–
Cn1cc(-c2ccc3[nH]c(=O)c(-c4cc5cc(CN6CCCCC6)ccc5[nH]4)cc3c2)cn1	1.1	–	–	–
O=c1[nH]c2ccc(-n3ccnc3)cc2cc1-c1cc2cc(CN3CCCCC3)ccc2[nH]1	4.3	–	–	–
O=c1[nH]c2ccc(-c3cnsc3)cc2cc1-c1cc2cc(CN3CCCCC3)ccc2[nH]1	0.64	–	–	–
O=c1[nH]c2ccc(-n3nccn3)cc2cc1-c1cc2cc(CN3CCCCC3)ccc2[nH]1	14	–	–	–
O=c1[nH]c2ccc(-c3cn[nH]c3)cc2cc1-c1cc2cc(CN3CCCCC3)ccc2[nH]1	–	4.4	30	2.81
Cn1nnc(-c2ccc3[nH]c(=O)c(-c4cc5cc(CN6CCCCC6)ccc5[nH]4)cc3c2)n1	6.4	–	–	–
COCC(=O)N1CCN(Cc2ccc3[nH]c(-c4cc5cc(-c6cn[nH]c6)ccc5[nH]c4=O)cc3c2)CC1	2.1	2	23	–
N#Cc1ccc2[nH]c(=O)c(-c3cc4cc(CN5CCCCC5)ccc4[nH]3)cc2c1	4.6	–	–	–
O=c1[nH]c2ccc(-c3cccc(O)c3)cc2cc1-c1cc2cc(CN3CCCCC3)ccc2[nH]1	29	–	–	–
